Measurements from PubChem BioAssay (NCI).
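Five concentrations, 48 hours, 96-well plates. At the GI50, growth is halved. The concentration for full growth arrest is given as TGI.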

Assays:
Test in all cases: NCI tumour cell line growth inhibition, 48 h
A549 NSCLC = system: A549 NSCLC
ACHN renal = system: ACHN renal
COLO 205 colon = system: COLO 205 colon
KM12 colon = system: KM12 colon
MOLT-4 leukemia = system: MOLT-4 leukemia
NCI-H226 lung = system: NCI-H226 lung
OVCAR-5 ovarian = system: OVCAR-5 ovarian
PC-3 prostate = system: PC-3 prostate
SW-620 colon = system: SW-620 colon
SF-295 CNS = system: SF-295 CNS

| Structure (SMILES) | GI50 (A549 NSCLC) [µM] | TGI (A549 NSCLC) [µM] | GI50 (ACHN renal) [µM] | TGI (ACHN renal) [µM] | GI50 (COLO 205 colon) [µM] | TGI (COLO 205 colon) [µM] | GI50 (KM12 colon) [µM] | TGI (KM12 colon) [µM] | GI50 (MOLT-4 leukemia) [µM] | TGI (MOLT-4 leukemia) [µM] | GI50 (NCI-H226 lung) [µM] | TGI (NCI-H226 lung) [µM] | GI50 (OVCAR-5 ovarian) [µM] | TGI (OVCAR-5 ovarian) [µM] | GI50 (PC-3 prostate) [µM] | TGI (PC-3 prostate) [µM] | GI50 (SW-620 colon) [µM] | TGI (SW-620 colon) [µM] | TGI (SF-295 CNS) [µM] | GI50 (SF-295 CNS) [µM] |
| --- | --- | --- | --- | --- | --- | --- | --- | --- | --- | --- | --- | --- | --- | --- | --- | --- | --- | --- | --- | --- |
| COc1ccc(/C=C\c2cc(OC)c(OC)c(OC)c2)cc1NC(=O)/C=C/c1ccc(OC)c(OC)c1 | 4.89 | > 100 | 5.25 | > 100 | 2.05 | 10.9 | 3.91 | > 100 | 6.66 | > 100 | 4.03 | > 100 | 7.69 | > 100 | 3.9 | > 100 | 4.88 | > 100 |  |  |
| O=C1OC(c2ccc([N+](=O)[O-])cc2)=N/C1=C\c1ccc(Cl)cc1 |  | > 100 |  | > 100 |  | > 100 |  | > 100 |  | > 100 |  | > 100 |  | > 100 |  | > 100 |  | > 100 | > 100 |  |
| O=C(O)/C=C/c1c2ccc(=O)c(O)c-2oc2c(O)c(O)ccc12 |  | > 100 |  | > 100 |  | > 100 |  | > 100 |  | 49.2 |  | > 100 |  | > 100 |  | > 100 |  | 49.6 | 55 |  |
| CC(=O)CC[N+](C)(C)C |  | > 94.6 |  | 26.5 |  | 17.5 |  | > 81.5 |  | 24.7 |  | 88.2 |  | 67.6 |  | 99.5 |  | 27.8 | > 100 |  |
| CCN(Cc1cc(Cl)cc(C)c1O)Cc1c(O)ccc2ccccc12 |  | 38 |  | 31.5 |  | 42 |  | 33 |  | 28 |  | 41 |  | 35.2 |  | 29.9 |  | 69.7 | 31.3 |  |
| O=C(O)c1cccc([As]=[As]c2cccc(C(=O)O)c2)c1 (stereo not drawn) |  | > 100 |  | > 100 |  | > 100 |  | > 100 |  | 95.1 |  | > 100 |  | 53.8 |  | 36.7 |  | > 100 | > 100 |  |
| CN(c1cccc(C(=O)O)c1)c1cc(O/N=[N+](\[O-])N(C)C)c([N+](=O)[O-])cc1[N+](=O)[O-] | > 100 | > 100 | > 100 | > 100 | > 100 | > 100 | > 100 | > 100 | > 100 | > 100 | > 100 | > 100 | > 100 | > 100 | > 100 | > 100 | > 100 | > 100 | > 100 | > 100 |
| CCCC(=O)Oc1ccc(/C(=C(\C)c2ccc(Cl)cc2)c2ccc(OCCN(CC)CC)cc2)cc1 | 2.58 | 6.91 | 3.39 | 11.9 | 1.82 | 3.66 | 3.05 | 10.7 | 3.09 | 10.5 | 8.8 | 25 | 4.84 | 19.7 | 0.56 | 14.1 | 1.99 | 4.35 | 3.81 | 1.93 |
| COc1ccc(-n2cc(-c3cc(OC)c(OC)c(OC)c3)nc2SCc2cccc(C#N)c2)cc1OC | 82.3 | > 100 | > 100 | > 100 | > 100 | > 100 | > 100 | > 100 | 51.7 | > 100 | > 100 | > 100 | > 100 | > 100 | 59.8 | > 100 | 34 | > 100 | > 100 | > 100 |
| CC(C)(C)OC(=O)N(CCCCN(CCCn1c2c(c3ccccc3c1=O)C(=O)c1ccccc1-2)C(=O)OC(C)(C)C)CCCn1c2c(c3ccccc3c1=O)C(=O)c1ccccc1-2 | 18.9 | > 100 | 14.3 | > 100 | > 100 | > 100 | 79.6 | > 100 | > 100 | > 100 | 99.2 | > 100 |  |  | 27.7 | > 100 | 32.3 | > 100 | > 100 | 14 |
| COc1ccc(-c2cn(C)c3c2-n2cccc2C3=O)cc1O | 18.1 | 54.1 | 5.05 | 22.5 | 17.1 | 38.8 | 3.71 | 16.4 | 7.21 | 82.2 | 6.33 | 39.7 | 5.74 | 25.2 | 6.09 | > 100 | 6.9 | > 100 | 21.3 | 5.22 |
| C[C@H]1C[C@@H](n2c(Nc3ccc(OC(F)(F)F)cc3)nc3cc(CCC(=O)O)ccc32)CC(C)(C)C1 | 11.1 | 30.2 | 13.1 | 27.1 | 18.8 | 39.4 | 10.5 | 24 | 9.37 | 32.6 | 17.8 | 42.4 | 17 | 31.5 | 11.9 | 27.9 | 15.3 | 32.5 | 19.1 | 4.85 |
| COc1ccc2nc3cc(Cl)ccc3c(Nc3ccccc3-c3ccccc3Nc3c4ccc(Cl)cc4nc4ccc(OC)cc34)c2c1 |  | > 100 |  | > 59.2 |  | > 88 |  | > 100 |  | > 69.4 |  | > 73.4 |  | > 85.9 |  | 63 |  | > 68.2 | > 76.2 |  |
| CC(NCCN(C)C)C1CCC2C3CCc4cc(O)ccc4C3CCC12C (stereo not drawn) |  | 13.6 |  | 3.99 |  | 3.54 |  | 10.3 |  | 5.19 |  | 34 |  | 18.3 |  | 11.7 |  | 12.7 | 6.72 |  |
| CC(=O)c1cc2c(Br)cccc2oc1=O |  | > 100 |  | > 100 |  | > 100 |  |  |  | > 100 |  | > 100 |  | > 100 |  | > 100 |  | > 100 | > 100 |  |
| COc1ccc(-c2nc(NC(=O)CS(=O)(=O)c3ccc(F)cc3)sc2C)cc1 |  |  | 30 | > 100 | 15.3 | 30.6 | 14.6 | 61 | 14.5 | > 100 | 23.8 | 87.8 | 36 | > 100 | 21.1 | 94.7 | 13.7 | > 100 | 50.1 | 18.8 |
